According to patent publication US6800630B2, “Pyrimidine derivatives having antitumor effect” (Shionogi & Co., Ltd., priority 2000, dated 2004):
Converted amounts (≈) assume the structure as drawn.

Legend:
Type in all cases: cell-based
[1] = tested on: signal derived from Ras oncogene products (DT-R cells, pRRE3-luc transfected v-ki-ras-transformed NIH373 cells); assay: Inhibitory effect against cellular signaling derived from Ras oncogene products: RRE-luciferase reporter, Minimal Active Concentration (MAC) at which DT-C and DT-R activities dissociate; details: minimal concentration at which luciferase activities of DT-C and DT-R cells dissociated
Description: (§1) Test Example 1 Inhibitory effect against cellular signaling derived from Ras oncogene products
(§2) Based on the reporter plasmid (pGV-P (Toyo Ink, Japan)), in which luciferase gene was ligated to SV40-derived minimal promoter, we constructed a plasmid designated pRRE3-luc by inserting 3 copies of chemically synthesized oligonucleotides (Sequence: CAGGATATGACTCT, derived from mouse NVL-3 (M. A. Reddy et al.(1992)Mol. Endocrinol., 6, 1051)) into upstream of the promoter. v-ki-ras-transformed NIH373 cells (DT cells, provided by Dr. Makoto Noda (Kyoto Univ., School of medicine)) were transfected with this plasmid by liposome-mediated transfection and transfected cell lines stably incorporated and maintained each plasmid were obtained. We named pGV-P and pRRE3-transfected cell line as DT-C and DT-R, respectively and used in the assay described below.
(§3) i) All the cell lines were cultured in Dulbecco's Modified Essential Medium (DMEM: 10% Fetal Calf Serum(FCS: Hyclone, USA)) including […] kanamycin (Meiji Seika, Japan) in humidified incubator under condition of 5% CO2 at 37° C.
(§4) ii) DT-C and DT-R cells were seeded at 2500 cells/well into flat-bottom 96 well multiplate (Sumitomo bakelite) and incubated for 24 hours.
(§5) iii) Test compounds were prepared as 1 mg/ml DMSO solution.
(§6) iv) The solution of test compounds were added to the culture. Tested compounds are used at the concentration from […] to 0.51 ng/ml with 3-fold dilution.
(§7) v) After 24 hours, the culture supernatant was completely aspirated and 20 μl of cell-lysing solution (PGC-50 (Toyo Ink, Japan)) was added before cells were dried up. In order to lyse the cells completely, multiwell plates were left at room temperature for 10 to 30 min. The plates were wrapped up and stored at −20° C. till the day of measurement.
(§8) i) Melt the samples by putting 96 well multiplate at 37° C. and add 90 μl/well 25 mM Tris (pH 7.5).
(§9) ii) Transfer 50 μl of the sample (110 μl) to the 96 well microplate (Microlite 1 (Dynatech)) for measurement.
(§10) iii) Measure the samples by the luminometer, LUMINOUS CT9000D (Dia-Yatron, Japan). We used Pickagene luminescence kit PGL2000 or LT2.0 (Toyo Ink, Japan) as enzyme substrates for luminescence measurement (50 μl/well).
(§11) i) The luciferase activity of DT-C cells and DT-R cells were plotted in the graph where the relative activity and the compound concentration were expressed as Y-axis and X-axis, respectively. We judged by the degree of dissociation between the activities of DT-C cells and DT-R cells as an index.
ii) Concretely, efficacy of the compound was expressed by two values described below.
a) Among the points of concentration tested, the minimal concentration (Minimal Active Concentration: MAC), at which the activities of DT-C cells and DT-R cells dissociated, was shown as an index of efficacy of the compound.

[2] = tested on: DT-C cells (pGV-P transfected v-ki-ras-transformed NIH373 cells); assay: Luciferase activity of DT-C control cells (IC50-C), index of non-specific transcription-inhibitory effect or cytotoxicity; details: tested concentration nearest to 50% inhibition in DT-C cells
Description: as §1, §2, §3, §4, §5, §6, §7, §8, §9, §10, §11
b) Among the points of concentration tested, the concentration which is the nearest to 50% inhibition concentration at DT-C cells (IC50-C), was shown as an index of non-specific transcription-inhibitory effect or of cytotoxicity. In case of positive compounds, 50% inhibition concentration in DT-C cells which was higher than the active concentration was expressed as IC50-C.

[3] = tested on: human squamous lung cancer Ma44; assay: In vitro cell growth inhibition test, MTT assay; details: MTT assay 4 days after compound addition
Description: (§12) Test Example 2 In vitro cell growth inhibition test Cells and MTT assay
(§13) Human squamous lung cancer […], human squamous lung cancer Ma44, human lung adenocarcinoma A549, human colon cancer HT29 and human pancreas cancer PANC-1 were used.

human colon cancer HT29 = assay: In vitro cell growth inhibition test, MTT assay; details: MTT assay 4 days after compound addition
Description: as §12, §13

[4] = tested on: human lung adenocarcinoma A549; assay: In vitro cell growth inhibition test, MTT assay; details: MTT assay 4 days after compound addition
Description: as §12, §13

[5] = tested on: human pancreas cancer PANC-1; assay: In vitro cell growth inhibition test, MTT assay; details: MTT assay 4 days after compound addition
Description: as §12, §13

[6] = tested on: human squamous lung cancer RERF-RC-AI; assay: In vitro cell growth inhibition test, MTT assay; details: MTT assay 4 days after compound addition
Description: as §12, §13

H460 = assay: In vitro cell growth inhibition test, MTT assay; details: MTT assay 4 days after compound addition
Description: [The source words this procedure for another cell line and reports this cell line under the same test.] as §12, §13

| SMILES | IC50 Ma44 [3] [µg/mL] | IC50 HT-29 (human colon cancer HT29) [µg/mL] | IC50 A549 [4] [µg/mL] | IC50 PANC-1 [5] [µg/mL] | IC50 RERF-LC-AI [6] [µg/mL] | IC50 H460 (H460) [µg/mL] | MAC (Minimal Active Concentration) [1] [µg/mL] | IC50 (IC50-C) [2] [µg/mL] |
| --- | --- | --- | --- | --- | --- | --- | --- | --- |
| CCNC(=Nc1nc(C)ncc1C(C)Sc1nnc(-c2ccc([N+](=O)[O-])cc2)o1)NCC (racemic) [Compound A-23] | – | – | – | – | – | – | 3.33 | >10 |
| CNC(=Nc1nc(C)ncc1CSc1nnc(-c2ccc([N+](=O)[O-])cc2)o1)SC [Compound A-1] | 0.12 (≈ 0.278 µM) | 0.045 (≈ 0.104 µM) | 0.0009 (≈ 0.00209 µM) | 0.046 (≈ 0.107 µM) | – | – | 1.11 | >10 |
| CCNC(=Nc1nc(C)ncc1CSc1nnc(-c2ccc([N+](=O)[O-])cc2)o1)SC [Compound A-3] | 0.056 (≈ 0.126 µM) | 0.052 (≈ 0.117 µM) | 0.063 (≈ 0.141 µM) | 0.051 (≈ 0.114 µM) | 0.046 (≈ 0.103 µM) | – | 0.37 | >10 |
| CCCNC(=Nc1nc(C)ncc1CSc1nnc(-c2ccc([N+](=O)[O-])cc2)o1)SC [Compound A-4] | 0.051 (≈ 0.111 µM) | 0.023 (≈ 0.05 µM) | 0.038 (≈ 0.0827 µM) | 0.026 (≈ 0.0566 µM) | 0.03 (≈ 0.0653 µM) | – | 0.37 | >10 |
| CCSC(=Nc1nc(C)ncc1CSc1nnc(-c2ccc([N+](=O)[O-])cc2)o1)NC [Compound A-5] | 0.0446 (≈ 0.1 µM) | 0.0484 (≈ 0.109 µM) | 0.07 (≈ 0.157 µM) | 0.0665 (≈ 0.149 µM) | 0.033 (≈ 0.0741 µM) | 0.089 (≈ 0.2 µM) | 0.123 | – |
| CCNC(=Nc1nc(C)ncc1CSc1nnc(-c2ccc([N+](=O)[O-])cc2)o1)SCC [Compound A-6] | 0.0182 (≈ 0.0396 µM) | 0.0244 (≈ 0.0531 µM) | 0.0256 (≈ 0.0557 µM) | 0.0148 (≈ 0.0322 µM) | 0.015 (≈ 0.0326 µM) | 0.0256 (≈ 0.0557 µM) | 0.0412 | – |
| CCCSC(=Nc1nc(C)ncc1CSc1nnc(-c2ccc([N+](=O)[O-])cc2)o1)NC [Compound A-7] | 0.0016 (≈ 0.00348 µM) | 0.0036 (≈ 0.00783 µM) | 0.0021 (≈ 0.00457 µM) | 0.0006 (≈ 0.00131 µM) | 0.0013 (≈ 0.00283 µM) | 0.0038 (≈ 0.00827 µM) | 0.123 | 3.33 (≈ 7.25 µM) |
| CCCSC(=Nc1nc(C)ncc1CSc1nnc(-c2ccc([N+](=O)[O-])cc2)o1)NCC [Compound A-8] | 0.0341 (≈ 0.072 µM) | 0.0414 (≈ 0.0874 µM) | 0.0093 (≈ 0.0196 µM) | 0.0371 (≈ 0.0783 µM) | 0.0278 (≈ 0.0587 µM) | 0.0068 (≈ 0.0144 µM) | 0.123 | >10 |
| CNC(=Nc1nc(C)ncc1CSc1nnc(-c2ccc(N)cc2)o1)SC [Compound A-10] | 0.08 (≈ 0.199 µM) | – | – | – | – | – | 1.11 | >10 |
| CCNC(=Nc1nc(C)ncc1CSc1nnc(-c2ccc(N)cc2)o1)SC [Compound A-11] | 0.077 (≈ 0.185 µM) | 0.0067 (≈ 0.0161 µM) | 0.014 (≈ 0.0337 µM) | 0.0064 (≈ 0.0154 µM) | – | – | 0.0412 | >10 |
| CCCNC(=Nc1nc(C)ncc1CSc1nnc(-c2ccc(N)cc2)o1)SC [Compound A-12] | 0.0095 (≈ 0.0221 µM) | 0.0063 (≈ 0.0147 µM) | 0.008 (≈ 0.0186 µM) | 0.0091 (≈ 0.0212 µM) | 0.0057 (≈ 0.0133 µM) | 0.0115 (≈ 0.0268 µM) | 0.0137 | >10 |
| CCSC(=Nc1nc(C)ncc1CSc1nnc(-c2ccc(N)cc2)o1)NC [Compound A-13] | 0.03 (≈ 0.0722 µM) | 0.0089 (≈ 0.0214 µM) | 0.015 (≈ 0.0361 µM) | 0.0077 (≈ 0.0185 µM) | – | – | 0.0137 | – |
| CCNC(=Nc1nc(C)ncc1CSc1nnc(-c2ccc(N)cc2)o1)SCC [Compound A-14] | 0.032 (≈ 0.0745 µM) | 0.011 (≈ 0.0256 µM) | 0.012 (≈ 0.0279 µM) | 0.0098 (≈ 0.0228 µM) | 0.012 (≈ 0.0279 µM) | – | 0.0412 | >10 |
| CCCSC(=Nc1nc(C)ncc1CSc1nnc(-c2ccc(N)cc2)o1)NC [Compound A-15] | 0.0127 (≈ 0.0296 µM) | 0.0103 (≈ 0.024 µM) | 0.0111 (≈ 0.0258 µM) | 0.0124 (≈ 0.0289 µM) | 0.0065 (≈ 0.0151 µM) | 0.0153 (≈ 0.0356 µM) | 0.00152 | >10 |

Second part, led by results:

| IC50 Ma44 [3] [µg/mL] | IC50 HT-29 (human colon cancer HT29) [µg/mL] | IC50 A549 [4] [µg/mL] | IC50 PANC-1 [5] [µg/mL] | IC50 RERF-LC-AI [6] [µg/mL] | IC50 H460 (H460) [µg/mL] | SMILES | MAC (Minimal Active Concentration) [1] [µg/mL] | IC50 (IC50-C) [2] [µg/mL] |
| --- | --- | --- | --- | --- | --- | --- | --- | --- |
| 0.042 (≈ 0.0914 µM) | – | – | – | – | – | CCNC(=Nc1nc(C)ncc1C(C)Sc1nnc(-c2ccc([N+](=O)[O-])cc2)o1)SC (racemic) [Compound A-22] | 1.11 | >10 |
| 0.042 (≈ 0.0978 µM) | 0.031 (≈ 0.0722 µM) | 0.064 (≈ 0.149 µM) | 0.034 (≈ 0.0792 µM) | 0.031 (≈ 0.0722 µM) | – | CCNC(=Nc1nc(C)ncc1CSc1nnc(-c2ccc([N+](=O)[O-])cc2)o1)OC [Compound A-32] | 0.123 | >10 |
| 0.0091 (≈ 0.0205 µM) | 0.0066 (≈ 0.0149 µM) | 0.023 (≈ 0.0519 µM) | 0.0086 (≈ 0.0194 µM) | 0.0093 (≈ 0.021 µM) | – | CCNC(=Nc1nc(C)ncc1CSc1nnc(-c2ccc([N+](=O)[O-])cc2)o1)OCC [Compound A-33] | 0.0412 | >10 |
| 0.0091 (≈ 0.0205 µM) | 0.0046 (≈ 0.0104 µM) | 0.021 (≈ 0.0474 µM) | 0.0075 (≈ 0.0169 µM) | 0.013 (≈ 0.0293 µM) | – | CNC(=Nc1nc(C)ncc1CSc1nnc(-c2ccc([N+](=O)[O-])cc2)o1)OC(C)C [Compound A-34] | 0.0137 | >10 |
| 0.0069 (≈ 0.0151 µM) | 0.0033 (≈ 0.00721 µM) | 0.011 (≈ 0.024 µM) | 0.0054 (≈ 0.0118 µM) | 0.0067 (≈ 0.0146 µM) | – | CCNC(=Nc1nc(C)ncc1CSc1nnc(-c2ccc([N+](=O)[O-])cc2)o1)OC(C)C [Compound A-35] | 0.0412 | >10 |
| 0.011 (≈ 0.0228 µM) | 0.0066 (≈ 0.0137 µM) | 0.016 (≈ 0.0332 µM) | 0.0064 (≈ 0.0133 µM) | – | – | CNC(=Nc1nc(C)ncc1CSc1nnc(-c2ccc([N+](=O)[O-])cc2)o1)NCC(F)(F)F [Compound C-1, reference compound] | 0.0412 | – |
| 0.0034 (≈ 0.00775 µM) | 0.002 (≈ 0.00456 µM) | 0.0044 (≈ 0.01 µM) | 0.002 (≈ 0.00456 µM) | – | – | C#CCNC(=Nc1nc(C)ncc1CSc1nnc(-c2ccc([N+](=O)[O-])cc2)o1)NC [Compound C-2, reference compound] | 0.0137 | >10 |
